Laboratory results: US20190212343A1, “METHODS FOR THE TREATMENT OF DISORDERS RELATED TO PHOSPHORYLATION OF HISTONES” (H. LEE MOFFITT CANCER CENTER AND RESEARCH INSTITUTE, INC., priority 2014, published 2019)
Entries after “also recorded” stand apart in the source; their conditions may differ.

Tests used:
[1] = system: pY88-H4 epigenetic marks in AR gene; assay: ChIP with pY88-H4 antibodies and real time PCR at the AR gene; type: cell-based, human; conditions: LNCaP and VCaP cells grown in the absence of androgen
Experimental: FIGS. 10A-10C show H4 Y88-phosphorylation occurs within and downstream of AR gene. (FIG. 10A) The human AR gene and two pY88-H4 binding sites are shown. (FIG. 10B) VCaP and (FIG. 10C) LNCaP cells treated with ACK1 inhibitor; ChIP was performed followed by qPCR using primers corresponding to promoter, intron 2, 3′UTR or control region. VCaP: *p<0.05, **p<0.05; LNCaP: *p<0.05, **p<0.05
To determine whether ACK1 modifies chromatin at AR gene locus, LNCaP and VCaP cells grown in the absence of androgen and were treated with AIM-100. Chromatin immunoprecipitation (ChIP) was performed using pY88-H4 antibodies, followed by real time PCR with primers corresponding to the AR promoter, intron 2 and 3′UTR (FIG. 10A). […] These marks were also deposited at 3′UTR of the AR gene but not at the promoter region (FIGS. 10B and 10C).

[2] = system: histone H3 Tyr99-phosphorylation (ACK1); assay: Histone H3 Tyr99-phosphorylation in HEK293 cells (pY99-H3 immunoprecipitation / H3 immunoblot); type: cell-based; conditions: HEK293 cells
Experimental: FIGS. 3A-3E show Ack1 phosphoryltes H3 at Tyr99 residue. […] (FIG. 3B) HEK293 cells co-expressing Myc-tagged Ack1 (WT) or KD mutant ACK1 and FLAG-tagged H3 or Y99F mutant […] were serum-starved (24h) and lysates were immunoprecipitated with pY99-H3 antibodies followed by immunoblotting with FLAG antibody (top panel). (FIG. 3C) HEK293 cells were treated with EGF ligand for indicated time points. Equal amounts of lysates were immunoprecipitated pY99-H3 antibodies followed by with immunoblotting with H3 antibody (top panel). (FIG. 3D) HEK293 cells were treated with ACK1 inhibitor, AIM-100 (5 uM overnight) and/or EGF ligand 20 min. Equal amounts of lysates were immunoprecipitated pY99-H3 antibodies followed by with immunoblotting with H3 antibody (top panel). […] (FIG. 3E) HEK293 cells were treated with increasing concentrations of AIM-100 (1, 2, 3 and 5 μM). Equal amounts of lysates were immunoprecipitated pY99-H3 antibodies followed by with immunoblotting with H3 antibody (top panel).
The Tyrosine99 or Y99 site in H3 protein is evolutionarily conserved (FIG. 3A). To examine whether H3 is ACK1 kinase substrate, HEK293 cells were co-transfected with HA-tagged ACK1 and FLAG-tagged H3 or FLAG-tagged Y99F mutant H3 expressing constructs. ACK I specifically phosphorylated H3 protein, but not the Y99F mutant protein (FIG. 3B). […]

[3] = system: AR and H3K4me3 at intron 2 of AR gene; assay: ChIP with AR or H3K4me3 antibodies and qPCR at intron 2 of AR gene; type: cell-based, human; conditions: LNCaP cells, absence of androgen
Experimental: LNCaP cells treated with AIM-100 and ChIP was performed using AR, H3K4me3 or IgG antibodies followed by qPCR using primers corresponding to intron 2, or control region. *p<0.05, **p<0.05.

AR mRNA = AR mRNA levels in androgen-deprived prostate cancer cells (qPCR with AR primers); type: cell-based, human; conditions: androgen-deprived LAPC4 and LNCaP cells, overnight treatment
[4] = system: histone H3 Tyr99-phosphorylation (ACK1); assay: Histone H3 Tyr99-phosphorylation in JAR cells (immunoblotting); type: cell-based, human; conditions: EGF+AIM-100
Experimental: FIGS. 5A-5D show ACK1 deposits pY99-H3 epigenetic marks in SLC6A4 promoter and intron 2. (FIG. 5A) Lysates prepared from JAR cells treated with EGF ligand were subjected to immunoblotting with indicated antibodies. (FIG. 5B) Lysates prepared from JAR cells treated with EGF or AIM-100 were subjected to immunoblotting with indicated antibodies. (FIG. 5C) Total RNA was prepared from JAR cells untreated or treated with EGF ligand followed by quantitative RT-PCR using SLC6A4 and actin primers. The ratio of SLC6A4 to actin is shown. (FIG. 5D) JAR cells were treated with EGF ligand and ChIP was performed using pY99-H3 antibodies followed by quantitative PCR using primers corresponding to intron 2 (VNTR).
JAR cells are human placenta-derived epithelial cells that express SLC6A4 or SERT. Applicant first assessed presence of ACK1 signaling in JAR cells by treating these cells with EGF ligand. […] ACK1 activation was also reflected in histone H3 Tyr99-phosphorylation (FIG. SA, 2nd panel).
To validate critical role of ACK1 in histone H3 Tyr99-phosphoryation, JAR cells were treated with EGF or EGF+AIM-100.

AR protein levels = AR protein levels in androgen deprived prostate cancer cells (immunoblotting); type: cell-based, human; conditions: androgen deprived LNCaP and VCaP cells, 2.5, 5 and 10 uM
Experimental: (FIG. 6A) Androgen starved LAPC4 cells were treated with DHT (10 nM, 16 Hrs), AIM-100, DZI-067, Enzalutamide or PLX4032 (7 uM, 36 Hr) and AR, pACK1 and Actin levels were determined by immunoblotting (IB). The relative level of AR is shown below. (FIG. 6B) Androgen deprived LNCaP and VCaP cell were untreated or treated with 2.5, 5 and 10 uM of AIM-100 and lysates were immunoblotted. The quantitation of AR expression is shown. (FIG. 6C) Androgen deprived LNCaP and VCaP cell were untreated or treated with 2.5, 5 and 10 uM of DZI-067 and lysates were immunoblotted. The quantitation of AR expression is shown. (FIG. 6D) LNCaP cells were transfected with control and Ack1 siRNAs followed by immunoblotting. (FIG. 6E) LNCaP cells treated with AIM-100 (7 uM, 16 hr) or MG 132 (10 uM, 6 hr) were immunoblotted with AR antibodies. […]
AR has been known to interact with an ubiquitin E3 ligase, RNF6, causing AR ubiquitination, which in turn promoted AR transcriptional activity (Xu, K. et al. (2009) Cancer Cell 15(4):270-282). To determine whether post-translational modification has role to play in suppression of AR levels upon Ack1 kinase inhibition, LNCaP cells were treated with proteosomal inhibitor, MG-132 and AR levels were measured in presence or absence of AIM-100.

Structure (SMILES): c1ccc(-c2oc3ncnc(NC[C@@H]4CCCO4)c3c2-c2ccccc2)cc1 [AIM-100]
- pY88-H4 epigenetic marks at AR gene (intron 2, 3′UTR) [1]: erased
- concentration resulting in complete loss of pY99-H3 ([2]; increasing concentrations of inhibitor): 0.5 μM
- histone H3 Tyr99-phosphorylation ([2]; inhibitor 5 uM overnight, EGF ligand 20 min): complete loss of histone H3 Tyr99-phosphorylation; also recorded: suppressed histone H3 Tyr99-phosphorylation
- AR enrichment at intron 2 of AR gene [3]: abolished
- H3K4me3 methyl marks at intron 2 of AR gene [3]: abolished
- AR mRNA levels (AR mRNA): significantly suppressed
- histone H3 Tyr99-phosphorylation [4]: almost complete loss of histone phosphorylation
- AR protein levels (AR protein levels): concomitant decrease in AR protein levels
